PubChem BioAssay (NCI)
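Exposure lasted 48 hours, with cells grown in 96-well plates and compounds tested at five concentrations. The concentration for full growth arrest is given as TGI.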

Assays:
Assay in all cases: NCI anticancer screen, dose series, 48 h
[1] = tested on: 786-0 renal
[2] = tested on: A549 NSCLC
[3] = tested on: CAKI-1 renal
[4] = tested on: DLD-1 colon
[5] = tested on: DMS 273 small cell lung
[6] = tested on: EKVX NSCLC
[7] = tested on: HCT-116 colon
[8] = tested on: HCT-15 colon
[9] = tested on: HOP-62 NSCLC
[10] = tested on: HOP-92 NSCLC
[11] = tested on: HT29 colon
[12] = tested on: K-562 leukemia
[13] = tested on: KM20L2 colon
[14] = tested on: LOX IMVI melanoma
[15] = tested on: M14 melanoma
[16] = tested on: M19-MEL melanoma
[17] = tested on: NCI-H23 lung
[18] = tested on: NCI-H460 lung
[19] = tested on: NCI-H522 lung
[20] = tested on: OVCAR-8 ovarian
[21] = tested on: RPMI-8226 leukemia
[22] = tested on: RXF 393 renal
[23] = tested on: SF-295 CNS
[24] = tested on: SF-539 CNS
[25] = tested on: SK-MEL-5 melanoma
[26] = tested on: SK-OV-3 ovarian
[27] = tested on: SN12C renal
[28] = tested on: SW-620 colon
[29] = tested on: TK-10 renal
[30] = tested on: U251 CNS
[31] = tested on: UACC-62 melanoma
[32] = tested on: UO-31 renal
[33] = tested on: XF 498 CNS
[34] = tested on: A498 renal
[35] = tested on: ACHN renal
[36] = tested on: BT-549 breast
[37] = tested on: CCRF-CEM leukemia
[38] = tested on: COLO 205 colon
[39] = tested on: DU-145 prostate
[40] = tested on: HCC-2998 colon
[41] = tested on: HL-60(TB) leukemia
[42] = tested on: HS 578T breast
[43] = tested on: IGROV1 ovarian
[44] = tested on: KM12 colon
[45] = tested on: MALME-3M melanoma
[46] = tested on: MCF7 breast
[47] = tested on: MDA-MB-231 breast
[48] = tested on: MDA-MB-435
[49] = tested on: MDA-N
[50] = tested on: MOLT-4 leukemia
[51] = tested on: NCI-H226 lung
[52] = tested on: NCI/ADR-RES ovarian
[53] = tested on: OVCAR-3 ovarian
[54] = tested on: OVCAR-4 ovarian
[55] = tested on: OVCAR-5 ovarian
[56] = tested on: PC-3 prostate
[57] = tested on: SF-268 CNS
[58] = tested on: SK-MEL-2 melanoma
[59] = tested on: SK-MEL-28 melanoma
[60] = tested on: SNB-19 CNS
[61] = tested on: SNB-75 CNS
[62] = tested on: SR leukemia
[63] = tested on: T-47D breast
[64] = tested on: UACC-257 melanoma

Q: How did the TGI [1] turn out when `Cc1nc2ccccc2c(=O)n1/N=C(\N=Nc1cccc(Cl)c1)c1ccccc1Cl` was run?
A: > 100 µM

Q: What about the TGI [2] of the same compound?
A: > 100 µM

Q: And the TGI [3]?
A: > 100 µM

Q: What about the TGI [4] of the same compound?
A: > 100 µM

Q: And the TGI [5]?
A: > 100 µM

Q: What about the TGI [6] of the same compound?
A: > 100 µM

Q: What about the TGI [7] of the same compound?
A: > 100 µM

Q: And the TGI [8]?
A: > 100 µM

Q: And the TGI [9]?
A: > 100 µM

Q: And the TGI [10]?
A: 58.5 µM

Q: What about the TGI [11] of the same compound?
A: > 100 µM

Q: And the TGI [12]?
A: 3.73 µM

Q: And the TGI [13]?
A: > 100 µM

Q: What about the TGI [14] of the same compound?
A: > 100 µM

Q: What about the TGI [15] of the same compound?
A: > 100 µM

Q: What about the TGI [16] of the same compound?
A: > 100 µM

Q: What about the TGI [17] of the same compound?
A: > 100 µM

Q: What about the TGI [18] of the same compound?
A: > 100 µM

Q: What about the TGI [19] of the same compound?
A: > 100 µM

Q: And the TGI [20]?
A: > 100 µM

Q: What about the TGI [21] of the same compound?
A: > 100 µM

Q: What about the TGI [22] of the same compound?
A: 55.2 µM

Q: And the TGI [23]?
A: 71.5 µM

Q: What about the TGI [24] of the same compound?
A: 89 µM

Q: What about the TGI [25] of the same compound?
A: > 100 µM

Q: What about the TGI [26] of the same compound?
A: 62.8 µM

Q: What about the TGI [27] of the same compound?
A: > 100 µM

Q: What about the TGI [28] of the same compound?
A: > 100 µM

Q: What about the TGI [29] of the same compound?
A: > 100 µM

Q: And the TGI [30]?
A: > 100 µM

Q: And the TGI [31]?
A: > 100 µM

Q: And the TGI [32]?
A: > 100 µM

Q: And the TGI [33]?
A: 3.91 µM

Q: For `CN(CCc1ccc(Cl)c(Cl)c1)CCN(C)CCN1CCCC1`, which TGI [1] is on record?
A: 21.9 µM

Q: What about the TGI [34] of the same compound?
A: 26.3 µM

Q: And the TGI [2]?
A: 28.3 µM

Q: What about the TGI [35] of the same compound?
A: 47.2 µM

Q: And the TGI [36]?
A: 36.2 µM

Q: And the TGI [3]?
A: 32.1 µM

Q: And the TGI [37]?
A: 14.6 µM

Q: What about the TGI [38] of the same compound?
A: 5.3 µM

Q: What about the TGI [39] of the same compound?
A: 86.4 µM

Q: And the TGI [6]?
A: 35.5 µM

Q: And the TGI [40]?
A: 4.5 µM

Q: What about the TGI [7] of the same compound?
A: 18.7 µM

Q: And the TGI [8]?
A: 38.4 µM

Q: And the TGI [41]?
A: 31.7 µM

Q: What about the TGI [9] of the same compound?
A: 34.9 µM

Q: And the TGI [10]?
A: 16 µM

Q: And the TGI [42]?
A: 46.3 µM

Q: And the TGI [11]?
A: 12.5 µM

Q: And the TGI [43]?
A: 43.7 µM

Q: What about the TGI [12] of the same compound?
A: 7.27 µM

Q: And the TGI [44]?
A: 24.8 µM

Q: What about the TGI [14] of the same compound?
A: 20.1 µM

Q: And the TGI [15]?
A: 9.88 µM

Q: And the TGI [45]?
A: 15 µM

Q: What about the TGI [46] of the same compound?
A: 26.3 µM

Q: What about the TGI [47] of the same compound?
A: 23 µM

Q: And the TGI [48]?
A: 4.5 µM

Q: And the TGI [49]?
A: 3.74 µM

Q: What about the TGI [50] of the same compound?
A: 20.1 µM

Q: What about the TGI [51] of the same compound?
A: 38.5 µM

Q: And the TGI [17]?
A: 38.3 µM

Q: And the TGI [18]?
A: 25.7 µM

Q: And the TGI [19]?
A: 20.9 µM

Q: What about the TGI [52] of the same compound?
A: > 72.7 µM

Q: What about the TGI [53] of the same compound?
A: 70.4 µM

Q: What about the TGI [54] of the same compound?
A: > 100 µM

Q: What about the TGI [55] of the same compound?
A: 43.3 µM

Q: And the TGI [20]?
A: 62 µM

Q: And the TGI [56]?
A: 39.7 µM

Q: What about the TGI [21] of the same compound?
A: 8.97 µM

Q: And the TGI [22]?
A: 26.6 µM

Q: What about the TGI [57] of the same compound?
A: 29.8 µM

Q: And the TGI [23]?
A: 32.4 µM

Q: And the TGI [24]?
A: 17.5 µM

Q: And the TGI [58]?
A: 10 µM

Q: What about the TGI [59] of the same compound?
A: 3.34 µM

Q: What about the TGI [25] of the same compound?
A: 7.75 µM

Q: What about the TGI [26] of the same compound?
A: 54.3 µM

Q: What about the TGI [27] of the same compound?
A: 40.2 µM

Q: What about the TGI [60] of the same compound?
A: 43.3 µM

Q: And the TGI [61]?
A: 31.5 µM

Q: What about the TGI [62] of the same compound?
A: 17.2 µM

Q: What about the TGI [28] of the same compound?
A: 31.2 µM

Q: What about the TGI [63] of the same compound?
A: 44.6 µM

Q: And the TGI [29]?
A: 26.7 µM

Q: And the TGI [30]?
A: 24.4 µM

Q: What about the TGI [64] of the same compound?
A: 5.04 µM

Q: And the TGI [31]?
A: 3.74 µM

Q: What about the TGI [32] of the same compound?
A: 17.2 µM
